According to patent US4614746A, “5-fluorobenzonitrile derivatives for increasing the lean meat to fat ratio and/or enhancing the growth rate of warm-blooded animals” (American Cyanamid Company, priority 1985, dated 1986):

Legend:
CFI female mice [1] = assay: Antilipogenic evaluation of test compounds - mouse study (fat pad and body weight, 12-day feeding); format: in vivo; settings: 12 days
Experimental: CFI female mice from Carworth Farms are received when they are six-weeks old. They are housed ten to a cage in air-conditioned rooms (22° C. to 25° C.) with automatically-controlled lights, 14 hours on and ten hours off. The basal diet used in these studies is Purina Laboratory Chow (see description below) which is supplied ad libitum. The following is a description of the diet to which the growth-promoting compounds were added. Meat and bone meal, dried skimmed milk, wheat germ meal, fish meal, animal liver meal, dried beet pulp, ground extruded corn, ground oat groats, soybean meal, dehydrated alfalfa metal, cane molasses, animal fat preserved with BHA, vitamin B12 supplement, calcium pantothenate, choline chloride, folic acid, riboflavin supplement, brewer's dried yeast, thiamin, niacin, vitamin A supplement, D-activated plant sterol, vitamin E supplement, calcium carbonate, dicalcium phosphate, iodized salt, ferric ammonium citrate, iron oxide, manganous oxide, cobalt carbonate, copper oxide, zinc oxide. Water is also allowed ad libitum. Thirteen days after arrival, the mice are weighed in groups of ten and assigned at random to the different treatments. Each of the treatments is tested in three replicates, i.e., in three cages of ten mice each. There are ten cages of ten control mice each. Drugs are mixed in the diet at the dosage level indicated. Feed and water are offered ad libitum for a 12-day test period. Feed spilled is collected during the test period. At the end of the test period, the collected feed is weighed, and the mean feed consumption per cage of ten mice is determined for each treatment. The mice are weighed as a group of ten, and the weight gain determined. The mice are sacrificed by cervical dislocation. The right uterine fat pad of each mouse is removed. The fat pads for each cage of ten mice are weighed as a unit. Reduction in fat pad weights of animals is generally indicative of a reduction of total body fat of the treated animals.

CFI female mice [2] = assay: Antilipogenic evaluation of test compounds - mouse study (Example 6, procedure of Example 4); format: in vivo
Experimental: CFI female mice from Carworth Farms are received when they are six-weeks old. They are housed ten to a cage in air-conditioned rooms (22° C. to 25° C.) with automatically-controlled lights, 14 hours on and ten hours off. The basal diet used in these studies is Purina Laboratory Chow (see description below) which is supplied ad libitum.
Thirteen days after arrival, the mice are weighed in groups of ten and assigned at random to the different treatments. Each of the treatments is tested in three replicates, i.e., in three cages of ten mice each. There are ten cages of ten control mice each. Drugs are mixed in the diet at the dosage level indicated. Feed and water are offered ad libitum for a 12-day test period. Feed spilled is collected during the test period. At the end of the test period, the collected feed is weighed, and the mean feed consumption per cage of ten mice is determined for each treatment. The mice are weighed as a group of ten, and the weight gain determined. The mice are sacrificed by cervical dislocation. The right uterine fat pad of each mouse is removed. The fat pads for each cage of ten mice are weighed as a unit. Reduction in fat pad weights of animals is generally indicative of a reduction of total body fat of the treated animals.
Following the procedure of Example 4, the analogues of the compounds of the invention in the subject Application are evaluated as antilipogenic agents.

Row | SMILES | % Change in Body Weight vs controls (CFI female mice [1]; 50 ppm in diet) | % Reduction in Fat Pad Weight vs Controls (CFI female mice [1]; 50 ppm in diet) | % Change in Body Weight vs controls (CFI female mice [1]; 100 ppm in diet) | % Reduction in Fat Pad Weight vs Controls (CFI female mice [1]; 100 ppm in diet) | % Change in Body Weight vs controls (CFI female mice [1]; 200 ppm in diet) | % Reduction in Fat Pad Weight vs Controls (CFI female mice [1]; 200 ppm in diet) | % Change in Body Weight vs controls (CFI female mice [1]; second dose, not given) | % Reduction in Fat Pad Weight vs Controls (CFI female mice [1]; second dose, not given) | Mouse Test Fat Pad Weight % ± Control (CFI female mice [2]; 100 ppm) | Mouse Test Fat Pad Weight % ± Control (CFI female mice [2]; 200 ppm)
1 | CCCC(C)NCC(O)c1cc(F)cc(C#N)c1 (stereo not drawn) [drawing 15] | +15.9% | -5.6% | +1.2% | -15.5% | +22.4% | -22.8% |  |  |  | 
2 | CCNCC(O)c1cc(F)cc(C#N)c1 (stereo not drawn) [drawing 16] | +18.8% | +4.3% | -4.1% | -33.3% | +25.3% | -37.9% |  |  |  | 
3 | CC(C)N(CC(O)c1cc(F)cc(C#N)c1)C(C)C (stereo not drawn) [drawing 17] |  |  |  |  | +19.05% | -19.36% | -2.38% | -15.39% |  | 
4 | CC(C)(C)NCC(O)c1cc(F)cc(C#N)c1 (stereo not drawn) [drawing 24] |  |  |  |  |  |  |  |  | -38.4% | -42.9%
